Measurements: PubChem BioAssay AID790 (SRMLSC, 2007)
Activity calls are given as the source filed them. How the calls were made is not given here.

How the values were obtained:
[1] = test system: S. cerevisiae vps1Δ mutant growth inhibition; assay: growth inhibition of yeast vps1Δ mutant, dose response, S. cerevisiae, background strain comparison (AID 790)
[2] = as above; conditions: S. cerevisiae vps1Δ mutant growth inhibition; measured here: background strain growth inhibition

Compound	IC50 [1]	IC50 [2]
O=[N+]([O-])c1ccc(N2CCN(S(=O)(=O)c3ccc(Cl)cc3)CC2)cc1NCc1cccnc1	> 10 µM (inactive)	> 10 µM
O=C(Cn1nnc(-c2ccc(S(=O)(=O)N3CCCC3)cc2)n1)NCC1CCCO1 (stereo not given)	> 10 µM (inactive)	> 10 µM
COc1ccc(Nc2nc(N)nc(CSc3nnc(N)s3)n2)cc1	> 10 µM (inactive)	> 10 µM
CC(C)c1ccc(C2C3CSCC=C3C(C#N)=C(N)C2(C#N)C#N)cc1 (stereo not given)	1.77 µM (inactive)	0.843 µM
COCCCNc1ccnc2c(Cl)cccc12	> 10 µM (inactive)	> 10 µM
O=C1c2cccc3c([N+](=O)[O-])ccc(c23)C(=O)N1c1ccc(Cl)cn1	8.74 µM (inactive)	6.08 µM
O=C(CCC(=O)OCC(=O)c1ccc(F)cc1)NC1CCCCC1	> 10 µM (inactive)	> 10 µM
Cc1c(C)c2cc(Cl)c(O)c(CN3CCN(C)CC3)c2oc1=O	> 10 µM (inactive)	> 10 µM
O=C(c1ccc(Cl)cc1Cl)N1CCC(c2nc3c(nnn3Cc3ccco3)c(=O)[nH]2)CC1	> 10 µM (inactive)	> 10 µM
COc1ccccc1N1CCN(CC(O)c2ccc3cc[nH]c3c2)CC1 (stereo not given)	> 10 µM (inactive)	> 10 µM
O=C1CN(C(=O)CSc2nnc(-c3ccccc3)n2Cc2ccc3c(c2)OCO3)c2ccccc2N1	> 10 µM (inactive)	> 10 µM
CCOC(=O)Cn1cc(C=O)c2ccccc21	> 10 µM (inactive)	> 10 µM
Cc1ccc2cc(CN(CCO)Cc3nnnn3Cc3ccc(F)cc3)c(=O)[nH]c2c1	> 10 µM (inactive)	> 10 µM
CC(C)Oc1ccc(/C(O)=C2/C(=O)C(=O)N(CCN(C)C)C2c2ccco2)cc1 (stereo not given)	> 10 µM (inactive)	> 10 µM
CCOC(=O)c1c(NC(=O)CN2CCCCC2)sc2c1CCC(C=O)=C2Cl	> 10 µM (inactive)	> 10 µM
CC1CN(CC(O)COc2ccc(C(C)C)cc2)CC(C)O1 (stereo not given)	> 10 µM (inactive)	> 10 µM
OC(Cn1ccnc1)c1ccc(Cl)cc1Cl (stereo not given)	> 10 µM (inactive)	> 10 µM
CCN(CC)CCn1nc(C)nc1-c1ccccc1O	> 10 µM (inactive)	> 10 µM
Clc1ccc(-c2cnc(Oc3ccccc3)nc2)cc1	> 10 µM (inactive)	> 10 µM
CCOC(=O)Cc1c(C)c2ccc(N(CC)CC)cc2oc1=O	> 10 µM (inactive)	> 10 µM
O=S(=O)(NCC(c1cccnc1)N1CCN(c2ccccc2)CC1)c1cccs1 (stereo not given)	20.5 µM	> 10 µM
O=C(OCn1ncc(Cl)c(Cl)c1=O)c1ccc(C(F)(F)F)cc1	> 10 µM (inactive)	> 10 µM
NC(=O)c1ccsc1NC(=O)c1nc(-c2ccccc2)n(-c2ccccc2)n1	> 10 µM (inactive)	> 10 µM
COc1ccc(N2CCN(c3oc(-c4ccco4)nc3C#N)CC2)cc1	> 10 µM (inactive)	> 10 µM
COc1ccc(C(=O)c2c(C(F)(F)F)oc3c2C(=O)c2ccccc2C3=O)cc1	1.99 µM	2.32 µM
COc1cccc(C(=O)N2CCN(C3CCC(c4ccccc4)CC3)CC2)c1OC (stereo not given)	23.3 µM	23.9 µM
COc1ccc(Cl)cc1NC(=O)C(C)N1CCN(C/C=C/c2ccccc2)CC1 (stereo not given)	> 10 µM (inactive)	15 µM

Compound	IC50 [1]	IC50 [2]
O=[N+]([O-])c1ccc(N/N=C/c2c[nH]c3ccccc23)c(S(=O)(=O)Nc2ccc(Cl)cc2)c1	2.47 µM	2.5 µM
COc1cccc(NC(=O)C2CCCN2C(=O)OCc2ccccc2)c1 (stereo not given)	> 10 µM (inactive)	> 10 µM
CCN(CC)c1ccc(CN2CC=C(c3ccc(F)cc3)CC2)cc1	> 10 µM (inactive)	25.8 µM
O=C(Nc1nc(-c2ccccn2)cs1)c1ncc(Cl)c(Cl)c1Cl	2.06 µM	13.3 µM
COC(=O)C1=CN(CCCN2CCCC2=O)C=C(C(=O)OC)C1c1ccccc1C(F)(F)F	> 10 µM (inactive)	> 10 µM
Cc1ccc(C2N(c3ccc(Cl)c(Cl)c3)C(=O)C3CCCN32)o1 (stereo not given)	> 10 µM (inactive)	> 10 µM
N#Cc1cn(-c2ccccc2)nc1-c1cc2ccccc2oc1=O	> 10 µM (inactive)	> 10 µM
Cc1cccc(-c2nnc(-c3cccc(NC(=O)Cc4cccs4)c3)o2)c1	> 10 µM (inactive)	15.2 µM
CCCCS(=O)(=O)/C=C\C=C/S(=O)(=O)CCCC	12.1 µM	13.9 µM
C=CCc1ccc(OCC(O)CN2CCC(Cc3ccccc3)CC2)c(OC)c1 (stereo not given)	19.4 µM (inactive)	19.1 µM
c1ccc2c(c1)oc1c(Nc3ccc(CN4CCOCC4)cc3)ncnc12	> 10 µM (inactive)	> 10 µM
CCn1c(-c2c[nH]c3ccccc23)n[nH]c1=S	> 10 µM (inactive)	> 10 µM
COc1ccc(/C=C2\SC(=S)N(NC(=O)c3csc4c3CCCC4)C2=O)cc1	> 10 µM (inactive)	> 10 µM
O=S(=O)(c1cnccc1N1CCN(/N=C/c2ccc(Br)cc2)CC1)N1CCCCC1	> 10 µM (inactive)	> 10 µM
COc1ccc(NC(=O)N(C2CCCCC2)C(C)c2cccnc2)c(OC)c1 (stereo not given)	16.5 µM	16.7 µM
O=C(NCCSCc1ccc(Cl)cc1Cl)c1ccc(CN2CCOCC2)cc1	> 10 µM (inactive)	> 10 µM
c1ccc(COc2ccc(CN3CCN(c4ccccn4)CC3)cc2)cc1	> 10 µM (inactive)	> 10 µM
O=C(c1ccco1)N1CCN=C1SCc1cccnc1	> 10 µM (inactive)	> 10 µM
CN1/C(=C/C2CC(=O)NC2=O)C(C)(C)c2ccccc21 (stereo not given)	> 10 µM (inactive)	> 10 µM
CCCCOc1ccc(-c2ncc(C(=O)O)c(C)n2)cc1	> 10 µM (inactive)	> 10 µM
O=C(Nc1cc(C(F)(F)F)ccc1-n1cncn1)c1ccc(-c2ccccc2)cc1	> 10 µM (inactive)	> 10 µM
CC(=O)NC1C(c2nc3ccccc3s2)=C(c2ccccc2)C(=O)N1c1ccc(C)cc1 (stereo not given)	2.18 µM (inactive)	1.92 µM
O=C1OCC(CO)(CO)N=C1NNc1ccc(Cl)c(Cl)c1	2.43 µM	3.35 µM
O=C(NCc1ccco1)C(c1cccs1)N(C(=O)Cc1cccs1)c1ccccc1 (stereo not given)	> 10 µM (inactive)	> 10 µM
Cc1ccc(C(C)C)c(OCCCN2CC(C)OC(C)C2)c1 (stereo not given)	> 10 µM (inactive)	> 10 µM
Cc1cc(NCCCN2CCOCC2)n2ncc(-c3ccc(Cl)cc3)c2n1	> 10 µM (inactive)	> 10 µM
CC(C)COC(=O)c1ccc2c(c1O)C(=O)c1ccccc1C2=O	22.9 µM	> 10 µM

Compound	IC50 [1]	IC50 [2]
CCCC(=O)N1CCN(c2ccc(NC(=O)c3cc4ccccc4o3)cc2Cl)CC1	> 10 µM (inactive)	19.2 µM
CN1C(=O)/C(=C/c2cccn2-c2ccc3ccccc3c2)C(=O)NC1=S	14.2 µM (inactive)	6.58 µM
O=C(Nc1cccc(Cl)c1)N1CCN(C/C=C/c2ccccc2)CC1	> 10 µM (inactive)	> 10 µM
COCCNc1cc(C)nc2c3c(C)cc(C)nc3nn12	> 10 µM (inactive)	> 10 µM
O=c1c2c3c(sc2ncn1/N=C/c1ccc([N+](=O)[O-])o1)CCCC3	2.19 µM (inactive)	1.59 µM
COc1cc(CN2CCN(c3ccc(C)cc3)CC2)cc([N+](=O)[O-])c1O	> 10 µM (inactive)	> 10 µM
O=C1OCC2=C1C(c1ccc(F)cc1)Sc1ccccc1N2 (stereo not given)	14.4 µM	> 10 µM
O=C(OCn1ncc(Cl)c(Cl)c1=O)c1ccccc1Cl	5.41 µM	16.6 µM
N=c1c2c(-c3ccccc3)c(-c3ccccc3)n(Cc3ccco3)c2ncn1Cc1ccco1	> 10 µM (inactive)	21.5 µM
COc1ccc2nc(NCCCNC(=O)c3cc(OC)c(OC)c(OC)c3)c(C#N)cc2c1	> 10 µM (inactive)	> 10 µM
Cc1ccc(N2CCN(S(=O)(=O)N3CCCCCC3)CC2)cc1Cl	> 10 µM (inactive)	> 10 µM
Cc1ccc(C)c(NS(=O)(=O)c2cc(C(=O)N3CCc4ccccc4C3)ccc2Cl)c1	> 10 µM (inactive)	6.88 µM
COC(=O)c1ccc(NC(=O)c2cn(-c3ccccc3)nc2-c2ccncc2)cc1	> 10 µM (inactive)	> 10 µM
CC1=CC(C)(C)Nc2ccc(OC(=O)CN3C(=O)c4cccc5cccc(c45)C3=O)cc21	> 10 µM (inactive)	> 10 µM
Cc1ccc(NS(=O)(=O)c2cc(C(=O)N3CCOCC3)ccc2C)cc1	> 10 µM (inactive)	> 10 µM
Cc1ccc2nc(C)cc(OCC(=O)O)c2c1	> 10 µM (inactive)	> 10 µM
O=C1CC(N2CCN(c3ccc(Cl)c(Cl)c3)CC2)C(=O)N1 (stereo not given)	15.3 µM	> 10 µM
CCn1c(=O)[nH]c2cc(C(=O)N3CCN(c4ccccc4)CC3)ccc2c1=O	> 10 µM (inactive)	> 10 µM
O=C(OCn1ncc(Br)c(Br)c1=O)c1ccc(F)cc1	3.91 µM	5.38 µM
Cc1ccc(C)c(C(=O)NCc2ccncc2)c1	> 10 µM (inactive)	> 10 µM
O=C1NC2(Nc3ccccc31)C(=O)Nc1ccccc12 (stereo not given)	> 10 µM (inactive)	> 10 µM
CC(=O)Nc1ccccc1NS(=O)(=O)c1ccc(Cl)cc1	> 10 µM (inactive)	> 10 µM
Cc1sc(NC(=O)c2ccco2)c(C(c2cccnc2)N2CCC(C)CC2)c1C (stereo not given)	> 10 µM (inactive)	5.77 µM
COc1ccc(N2CCN(C(=O)CCNS(=O)(=O)c3ccc(Br)s3)CC2)cc1	> 10 µM (inactive)	> 10 µM
CS(=O)(=O)N1CCC(C(=O)NCCN2CCN(Cc3ccccc3)CC2)CC1	> 10 µM (inactive)	> 10 µM
CC(C)(C)n1nnnc1CN(Cc1cccnc1)Cc1ccccc1Cl	> 10 µM (inactive)	> 10 µM
